This is an account of results in patent US20160083391A1, “TRICYCLIC PIPERAZINE DERIVATIVE” (Sunovion Pharmaceuticals Inc., priority 2014, published 2016).

A value given as a limit tells only on which side of the number the result lay.

For the experiment, the system named is PDE1. Put plainly: In vitro HTRF PDE1 inhibition assay. It counts as biochemical. The conditions noted are these: HTRF cGMP assay, 100 nM cyclic GMP, PDE (1A3, 1B or 1C) with calmodulin, 45 minutes at 37° C.; isoform of the tabulated values not stated. Put shortly:
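HTRF cGMP competition assay: PDE1A3, 1B or 1C with calmodulin acting on 100 nM cGMP in 1% DMSO, pH 7.4 buffer with Ca2+ and Mg2+, 45 min at 37 °C. Remaining cGMP detected with d2-cGMP and anti-cGMP cryptate (665/615 nm); IC50 reported as banded categories.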
(In general: TR-FRET usually uses a lanthanide donor and a delayed reading to cut background.)
For `Cc1cnc(CN2CCn3c(nc4c(cnn4C(C)C)c3=O)C2)nc1` [Compound I-198, 1-Isopropyl-8-((5-methylpyrimidin-2-yl)methyl)-6,7,8,9-tetrahydropyrazino[1,2-a]pyrazolo[3,4-d]pyrimidin-4(1H)-one], the IC50 (in general, the concentration that inhibits the measured activity by half) is more than 10 µM. `COCCn1ncc2c(=O)n3c(nc21)CN(Cc1cccc(OC)c1)CC3` [Compound I-161, 8-(3-Methoxybenzyl)-1-(2-methoxyethyl)-6,7,8,9-tetrahydropyrazino[1,2-a]pyrazolo[3,4-d]pyrimidin-4(1H)-one] had an IC50 of more than 10 µM.

For the molecule `COc1ccc(CN2CCn3c(nc4c(C5CCCC5)n[nH]c4c3=O)C2)cc1` [Compound I-123, 3-Cyclopentyl-6-(4-methoxybenzyl)-5,6,7,8-tetrahydropyrazino[1,2-a]pyrazolo[4,3-d]pyrimidin-10(1H)-one], the half-inhibitory concentration (IC50) is more than 10 µM. In turn, `Cc1ncc(CN2CCn3c(nn4c(C(C)C)ncc4c3=O)C2)cn1` [Compound I-196, 3-Isopropyl-7-((2-methylpyrimidin-5-yl)methyl)-8,9-dihydro-6H-imidazo[5,1-f]pyrazino[2,1-c][1,2,4]triazin-11(7H)-one] registered an IC50 of 1 to 10 µM.

In turn, `CC(C)n1ncc2c(=O)n3c(nc21)CN(Cc1ccc(Cl)cc1)CC3` [Compound I-73, 8-(4-Chlorobenzyl)-1-isopropyl-6,7,8,9-tetrahydropyrazino[1,2-a]pyrazolo[3,4-d]pyrimidin-4(1H)-one] yielded an IC50 of less than 1 µM. For the molecule `CCOc1cc(N2CCn3c(nn4c(C5CCCC5)ncc4c3=O)C2)ccc1F` [Compound I-184, 3-Cyclopentyl-7-(3-ethoxy-4-fluorophenyl)-8,9-dihydro-6H-imidazo[5,1-f]pyrazino[2,1-c][1,2,4]triazin-11(7H)-one], the IC50 was less than 1 µM. For the molecule `CC(C)Cn1ncc2c(=O)n3c(nc21)CN(c1ccc(Cl)cc1)CC3` [Compound I-92, 8-(4-Chlorophenyl)-1-isobutyl-6,7,8,9-tetrahydropyrazino[1,2-a]pyrazolo[3,4-d]pyrimidin-4(1H)-one], the IC50 is less than 1 µM. `O=c1c2cnc(C3CC3)n2nc2n1CCN(c1ccc(Cl)cc1)C2` [Compound I-251, 7-(4-Chlorophenyl)-3-cyclopropyl-8,9-dihydro-6H-imidazo[5,1-f]pyrazino[2,1-c][1,2,4]triazin-11(7H)-one]: the IC50 is less than 1 µM. `CC1c2nc3c(cnn3C(C)C)c(=O)n2CCN1C` (racemic) [Compound I-21, (±)-1-Isopropyl-8,9-dimethyl-6,7,8,9-tetrahydropyrazino[1,2-a]pyrazolo[3,4-d]pyrimidin-4(1H)-one]: the IC50 was more than 10 µM. `CC(C)c1n[nH]c2c(=O)n3c(nc12)C(Cc1ccccc1)N(C)CC3` (racemic) [Compound I-39, (±)-5-Benzyl-3-isopropyl-6-methyl-5,6,7,8-tetrahydropyrazino[1,2-a]pyrazolo[4,3-d]pyrimidin-10(1H)-one]: the IC50 is more than 10 µM. On to `CC(C)CN1CCn2c(nc3c(cnn3C(C)C)c2=O)C1` [Compound I-57, 8-Isobutyl-1-isopropyl-6,7,8,9-tetrahydropyrazino[1,2-a]pyrazolo[3,4-d]pyrimidin-4(1H)-one], for which the IC50 was more than 10 µM. In the case of `COCCn1ncc2c(=O)n3c(nc21)CN(Cc1ccc(OC)cc1)CC3` [Compound I-158, 8-(4-Methoxybenzyl)-1-(2-methoxyethyl)-6,7,8,9-tetrahydropyrazino[1,2-a]pyrazolo[3,4-d]pyrimidin-4(1H)-one], the IC50 lay within 1 to 10 µM. The figure for `CCOc1cc(N2CCn3c(nn4c(C(C)C)ncc4c3=O)C2)ccc1F` [Compound I-177, 7-(3-Ethoxy-4-fluorophenyl)-3-isopropyl-8,9-dihydro-6H-imidazo[5,1-f]pyrazino[2,1-c][1,2,4]triazin-11(7H)-one] is less than 1 µM; for `O=c1c2nnc(C3CCCC3)n2nc2n1CCN(Cc1ccc(Cl)cc1)C2` [Compound I-132, 7-(4-Chlorobenzyl)-3-cyclopentyl-8,9-dihydro-6H-pyrazino[2,1-c][1,2,4]triazolo[3,4-f][1,2,4]triazin-11(7H)-one] it is less than 1 µM. For `CC1CN(C)Cc2nc3c(cnn3C3CCCC3)c(=O)n21` (racemic) [Compound I-100, (±)-1-Cyclopentyl-6,8-dimethyl-6,7,8,9-tetrahydropyrazino[1,2-a]pyrazolo[3,4-d]pyrimidin-4(1H)-one], the IC50 was more than 10 µM. On to `COc1ccccc1N1CCn2c(nc3c(cnn3C3CCCC3)c2=O)C1` [Compound I-96, 1-Cyclopentyl-8-(2-methoxyphenyl)-6,7,8,9-tetrahydropyrazino[1,2-a]pyrazolo[3,4-d]pyrimidin-4(1H)-one], for which the IC50 was in the range of 1 to 10 µM. Regarding `CC(C)c1ncc2c(=O)n3c(nn12)CN(Cc1ccc(Cl)cc1)CC3` [Compound I-179, 7-(4-Chlorobenzyl)-3-isopropyl-8,9-dihydro-6H-imidazo[5,1-f]pyrazino[2,1-c][1,2,4]triazin-11(7H)-one], the IC50 was less than 1 µM. `Cn1ncc2c(=O)n3c(nc21)CN(Cc1ccccc1)CC3` [Compound I-28, 8-Benzyl-1-methyl-6,7,8,9-tetrahydropyrazino[1,2-a]pyrazolo[3,4-d]pyrimidin-4(1H)-one] displayed a concentration for half-maximal inhibition (IC50) of more than 10 µM. `Cc1ccc(CN2CCn3c(nn4c(C5CCCC5)ncc4c3=O)C2)cn1` [Compound I-189, 3-Cyclopentyl-7-((6-methylpyridin-3-yl)methyl)-8,9-dihydro-6H-imidazo[5,1-f]pyrazino[2,1-c][1,2,4]triazin-11(7H)-one] yielded an IC50 of less than 1 µM. Take `CC(C)n1ncc2c(=O)n3c(nc21)CN(c1ccc(F)cc1)CC3` [Compound I-142, 8-(4-Fluorophenyl)-1-isopropyl-6,7,8,9-tetrahydropyrazino[1,2-a]pyrazolo[3,4-d]pyrimidin-4(1H)-one]: the IC50 is less than 1 µM. In turn, `CC(C)c1n[nH]c2c(=O)n3c(nc12)C(C)N(Cc1ccccc1)CC3` (racemic) [Compound I-44, (±)-6-Benzyl-3-isopropyl-5-methyl-5,6,7,8-tetrahydropyrazino[1,2-a]pyrazolo[4,3-d]pyrimidin-10(1H)-one] yielded an IC50 of more than 10 µM. Take `CC(C)c1n[nH]c2c(=O)n3c(nc12)CN(Cc1ccccc1)CC3` [Compound I-43, 6-Benzyl-3-isopropyl-5,6,7,8-tetrahydropyrazino[1,2-a]pyrazolo[4,3-d]pyrimidin-10(1H)-one]: the IC50 was more than 10 µM. With `CC(C)c1n[nH]c2c(=O)n3c(nc12)CNCC3` [Compound I-10, 3-Isopropyl-5,6,7,8-tetrahydropyrazino[1,2-a]pyrazolo[4,3-a]pyrimidin-10(1H)-one], the IC50 is more than 10 µM. The molecule `CC(C)n1ncc2c(=O)n3c(nc21)CN(Cc1ccccc1)CC3` [Compound I-29, 8-Benzyl-1-isopropyl-6,7,8,9-tetrahydropyrazino[1,2-a]pyrazolo[3,4-d]pyrimidin-4(1H)-one] gave an IC50 of 1 to 10 µM. `CC(C)c1n[nH]c2c(=O)n3c(nc12)C(Cc1ccccc1)N(Cc1ccccc1)CC3` (racemic) [Compound I-45, (±)-5,6-dibenzyl-3-isopropyl-5,6,7,8-tetrahydropyrazino[1,2-a]pyrazolo[4,3-d]pyrimidin-10(1H)-one] yielded an IC50 of more than 10 µM.

In turn, `Cc1cnc(CN2CCn3c(nc4c(cnn4C(C)C)c3=O)C2)cn1` [Compound I-206, 1-Isopropyl-8-((5-methylpyrazin-2-yl)methyl)-6,7,8,9-tetrahydropyrazino[1,2-a]pyrazolo[3,4-d]pyrimidin-4(1H)-one] yielded an IC50 of 1 to 10 µM. The molecule `COc1ccc(C(C)N2CCn3c(nc4c(cnn4C4CCCC4)c3=O)C2)cc1` (racemic) [Compound I-114, (±)-1-Cyclopentyl-8-(1-(4-methoxyphenyl)ethyl)-6,7,8,9-tetrahydropyrazino[1,2-a]pyrazolo[3,4-d]pyrimidin-4(1H)-one] came in with an IC50 of 1 to 10 µM.

`COc1ccc(CN2CCn3c(nn4c(C5CCOCC5)ncc4c3=O)C2)cc1` [Compound I-234, 7-(4-Methoxybenzyl)-3-(tetrahydro-2H-pyran-4-yl)-8,9-dihydro-6H-imidazo[5,1-f]pyrazino[2,1-c][1,2,4]triazin-11(7H)-one]: the IC50 is less than 1 µM. As to `COc1ccc(CN2CCn3c(nn4c(C5CCCC5)nnc4c3=O)C2)cc1` [Compound I-131, 3-Cyclopentyl-7-(4-methoxybenzyl)-8,9-dihydro-6H-pyrazino[2,1-c][1,2,4]triazolo[3,4-f][1,2,4]triazin-11(7H)-one], the IC50 was less than 1 µM.

In turn, `CC(C)c1ncc2c(=O)n3c(nn12)CN(Cc1cncnc1)CC3` [Compound I-192, 3-Isopropyl-7-(pyrimidin-5-ylmethyl)-8,9-dihydro-6H-imidazo[5,1-f]pyrazino[2,1-c][1,2,4]triazin-11(7H)-one] came in with an IC50 of more than 10 µM. `CCC1Cn2c(nc3c(cnn3C(C)C)c2=O)CN1Cc1ccc(Cl)cc1` (racemic) [Compound I-154, (±)-8-(4-Chlorobenzyl)-7-ethyl-1-isopropyl-6,7,8,9-tetrahydropyrazino[1,2-a]pyrazolo[3,4-d]pyrimidin-4(1H)-one] gave an IC50 of 1 to 10 µM. For the molecule `CCOc1cccc(N2CCn3c(nn4c(C(C)C)ncc4c3=O)C2)c1` [Compound I-173, 7-(3-Ethoxyphenyl)-3-isopropyl-8,9-dihydro-6H-imidazo[5,1-f]pyrazino[2,1-c][1,2,4]triazin-11(7H)-one], the IC50 is less than 1 µM.

`CC(C)Cc1nnc2c(=O)n3c(nn12)CN(Cc1ccncc1)CC3` [Compound I-228, 3-Isobutyl-7-(pyridin-4-ylmethyl)-8,9-dihydro-6H-pyrazino[2,1-c][1,2,4]triazolo[3,4-f][1,2,4]triazin-11(7H)-one] came in with an IC50 of 1 to 10 µM. In turn, `CC1c2nc3c(cnn3C(C)C)c(=O)n2CCN1Cc1ccccc1` (racemic) [Compound I-32, (±)-8-Benzyl-1-isopropyl-9-methyl-6,7,8,9-tetrahydropyrazino[1,2-a]pyrazolo[3,4-d]pyrimidin-4(1H)-one] registered an IC50 of more than 10 µM.
